This is an account of results in patent US20160250285A1, “NEUROPROTECTIVE PEPTIDES” (priority 2013, published 2016).

Where two headings read alike, the source gives them in different places. Peptide text beside a SMILES is read from it. A value given as a limit tells only on which side of the number the result lay.

In general, IC50 refers to the concentration that inhibits the measured activity by half.

For test [1], the system named is primary cortical neuronal cultures. The conditions noted are these: for neuroprotection, milder insult: FIG. 1i, comparison at 0.5 μM and 1 μM; for neuroprotection (neuronal viability): peptide 15 min prior to and during glutamic acid exposure, viability 24 h, MTS. On the procedure:
Briefly, cortical tissue from E18-E19 Sprague-Dawley rats was dissociated in Dulbecco's modified Eagle medium (DMEM; Invitrogen, Australia) supplemented with 1.3 mM L-cysteine, 0.9 mM NaHCOa, 10 units/ml papain (Sigma, USA) and 50 units/ml DNase (Sigma) and washed in cold DMEM/10% horse serum. Neurons were resuspended in Neurobasal (Invitrogen) containing 2% B27 supplement (B27; Invitrogen). Before seeding, 96-well sized glass wells (6 mm diameter, ProTech, Australia) or 96-well plastic plates (ProSciTech, Australia) were coated with poly-D-lysine overnight ([…]: 50 mg/mL; 70-150 K, Sigma). […] Neurons were plated to obtain ≈10,000 viable neurons for each well on day in vitro 11-12. […] On day in vitro 4 one third of the culture medium was removed and replaced with fresh Neurobasal/2% B27 containing the mitotic inhibitor, cytosine arabinofuraNOside (1 mM final concentration; Sigma). On day in vitro 8 one half of the culture medium was replaced with Neurobasal/2% B27.
To induce excitotoxicity, 50 μl of Neurobasal/2% B27 containing glutamic acid (200 μM) or kainic acid (400 μM) or NMDA (200 μM) was added to the culture wells (100 μM glutamic acid, 200 μM kainic acid and NMDA 100 μM final concentration). Cultures were incubated at 37° C. in the CO2 incubator for 5 minutes for glutamic acid, 45 minutes for kainic acid and 10 minutes for NMDA exposure, after which time the media was replaced with 100 μl of 50% Neurobasal/2% N2 supplement (Invitrogen) and 50% balanced salt solution (BSS; see below). Cultures were incubated for a further 24 hours at 37° C. in the CO2 incubator. The untreated controls with or without glutamic acid or kainic acid treatment received the same wash steps and media additions.
Following this step, cultures were treated as described above. Untreated controls with or without glutamic acid exposure received the same wash steps and media additions. In addition, a post-glutamic acid exposure CPP treatment (5 μM) experiment was performed for the R9 peptide and the JNKI-1D-TAT control peptide.
For pre-glutamic acid exposure experiments, neurons were exposed to peptide(s) for a 10 minute period, immediately before or 1, 2, 3, 4 or 5 hours prior to glutamic acid exposure. […] At the relevant peptide pre-treatment time, media was removed and replaced with 100 μl of Neurobasal/2%. […] Following 5-minute glutamic acid exposure, neuronal culture wells were treated as described above. For all experiments untreated controls with or without glutamic acid treatment underwent the same incubation steps and media additions.
Heparin (for injection) was obtained from Pfizer (1000 IU/ml). Two different heparin experiments were performed: 1. Peptides were incubated with heparin (20 IU/ml) in Neurobasal/B27 for 5 minutes at room temperature, before addition to culture wells (50 μl) for 15 minutes at 37° C. in the CO2 incubator. Following the incubation period, media in wells was removed and replaced with 100 μl of Neurobasal/2% B27 containing glutamic acid (100 μM), and subsequently treated as described above; 2. Media in wells was replaced with Neurobasal/2% B27 containing heparin (50 μl; 40 IU/ml) and incubated for 5 minutes at 37° C. in the CO2 incubator. After the incubation period, peptides or glutamate receptor blockers (MK801/CNQX) in Neurobasal/2% B27 (50 μl) were added to the culture wells and cultures incubated for a further 10 minutes at 37° C. in the CO2 incubator. Following the incubation period, media in wells was removed and replaced with 100 μl of Neurobasal/2% B27 containing glutamic acid (100 μM), and subsequently treated as described above. For all experiments, non-heparin treated peptide controls with glutamic acid treatment underwent the same incubation steps and media additions.
Twenty-four hours after insult, neuronal cultures were examined by light microscopy for qualitative assessment of neuronal cell viability.

The subject of test [2] is intracellular calcium influx in neuronal cultures. Put plainly: Intracellular calcium influx (Fura-2 AM) after glutamic acid. It counts as cell-based, rat. As to conditions: peptide 5 μM for 10 min, removed before 100 μM glutamic acid (FIG. 44).
Description: Fura-2 AM was used for intracellular calcium assessment. Representative fluorescent Fura-2 AM tracers; fluorescence intensity (FI) of neuronal cultures 30 sec before and following addition (arrow) of glutamic acid (100 μM final concentration). Peptides or glutamate receptor blockers were added to neuronal cultures for 10 min and removed (time 0) before glutamic acid. Values are mean±SE; n=3. Peptide concentration was 5 μM.
Briefly, cortical tissue from E18-E19 Sprague-Dawley rats was dissociated in Dulbecco's modified Eagle medium (DMEM; Invitrogen, Australia) supplemented with 1.3 mM L-cysteine, 0.9 mM NaHCOa, 10 units/ml papain (Sigma, USA) and 50 units/ml DNase (Sigma) and washed in cold DMEM/10% horse serum. Neurons were resuspended in Neurobasal (Invitrogen) containing 2% B27 supplement (B27; Invitrogen). Before seeding, 96-well sized glass wells (6 mm diameter, ProTech, Australia) or 96-well plastic plates (ProSciTech, Australia) were coated with poly-D-lysine overnight (50 ml/well: 50 mg/mL; 70-150 K, Sigma). Excess poly-D-lysine solution was then removed and replaced with Neurobasal (containing 2% B27; 4% fetal bovine serum; 1% horse serum; 62.5 mM glutamate; 25 mM 2-mercaptoethanol; and 30 mg/mL streptomycin and 30 mg/mL penicillin). Neurons were plated to obtain ≈10,000 viable neurons for each well on day in vitro 11-12. Neuronal cultures were maintained in a CO2 incubator (5% CO2, 95% air balance, 98% humidity) at 37° C. On day in vitro 4 one third of the culture medium was removed and replaced with fresh Neurobasal/2% B27 containing the mitotic inhibitor, cytosine arabinofuraNOside (1 mM final concentration; Sigma). On day in vitro 8 one half of the culture medium was replaced with Neurobasal/2% B27. Cultures were used on day in vitro 11 or 12 after which time they routinely consist of >97% neurons and 1-3% astrocytes (Meloni et al. 2001).
For test [3], the system named is primary cortical neuronal cultures. In words: In vitro ischemia / oxygen-glucose deprivation (OGD) model, neurons. It counts as cell-based, rat.
Description: Establishment of cortical cultures was as previously described (Meloni et al. 2001). Briefly, cortical tissue from E18-E19 Sprague-Dawley rats was dissociated in Dulbecco's modified Eagle medium (DMEM; Invitrogen, Australia) supplemented with 1.3 mM L-cysteine, 0.9 mM NaHCOa, 10 units/ml papain (Sigma, USA) and 50 units/ml DNase (Sigma) and washed in cold DMEM/10% horse serum. Neurons were resuspended in Neurobasal (Invitrogen) containing 2% B27 supplement (B27; Invitrogen). Before seeding, 96-well sized glass wells (6 mm diameter, ProTech, Australia) or 96-well plastic plates (ProSciTech, Australia) were coated with poly-D-lysine overnight (50 ml/well: 50 mg/mL; 70-150 K, Sigma). Excess poly-D-lysine solution was then removed and replaced with Neurobasal (containing 2% B27; 4% fetal bovine serum; 1% horse serum; 62.5 mM glutamate; 25 mM 2-mercaptoethanol; and 30 mg/mL streptomycin and 30 mg/mL penicillin). Neurons were plated to obtain ≈10,000 viable neurons for each well on day in vitro 11-12. Neuronal cultures were maintained in a CO2 incubator (5% CO2, 95% air balance, 98% humidity) at 37° C. On day in vitro 4 one third of the culture medium was removed and replaced with fresh Neurobasal/2% B27 containing the mitotic inhibitor, cytosine arabinofuraNOside (1 mM final concentration; Sigma). On day in vitro 8 one half of the culture medium was replaced with Neurobasal/2% B27. Cultures were used on day in vitro 11 or 12 after which time they routinely consist of >97% neurons and 1-3% astrocytes (Meloni et al. 2001).
The in vitro ischemia model used for primary cortical neuronal cultures was performed as previously described (Meloni et at 2011) Briefly, culture media was removed from wells (glass 96-well plate format) and washed with 315 μl of glucose free balanced salt solution (BSS; mM: 116 NaCl, 5.4 KCl, 1.8 CaCl2, 0.8 MgSO4, 1 NaH2PO4; pH 6.9) before the addition of 60 μl BSS containing cell penetrating or control peptides (see Table 1). A non-peptide positive control consisting of the glutamate receptor blockers (5 μM MK801/5 μM 6-cyano-7-nitroquinoxaline: MK801/CNQX) was also included. In vitro ischemia was initiated by placing wells in an anaerobic incubator (Don Whitely Scientific, England; atmosphere of 5% CO2, 10% H2 and 85% argon, 98% humidity) at 37° C. for 55 minutes. Upon removal from the anaerobic incubator, 60 μl of Neurobasal/2% N2 supplement was added to the wells and cultures incubated for a further 24 hours at 37° C. in the CO2 incubator. Control cultures received the same BSS wash procedures and media additions as ischemic treated cultures before incubation at 37° C. in the CO2 incubator.
Control cultures underwent the same BSS wash procedures and media additions as OGD treated cultures.
Twenty-four hours after insult, neuronal cultures were examined by light microscopy for qualitative assessment of neuronal cell viability. Neuronal viability was quantitatively measured by 3-(4,5,dimethyliazol-2-yl)-5-(3-carboxymethoxy-phenyl)-2-(4-sulfophenyl)-2H-tetrazolium salt (MTS) assay (Promega, Australia). The MTS assay measures the cellular conversion of the tetrazolium salt to a water-soluble brown formazan salt, which is detected spectrophotometrically at 490 nm. MTS absorbance data were converted to reflect proportional cell viability relative to both the untreated and treated controls, with the untreated control taken as 100% viability, and presented as mean±SEM. […] Viability data was analysed by ANOVA, followed by post-hoc Fischer's PLSD test, with P<0.05 values considered statistically significant. Four- to six wells were used in all assays.
Test [4] deals with permanent middle cerebral artery occlusion (MCAO) stroke model. In words: Rat permanent middle cerebral artery occlusion (MCAO) stroke model. It counts as in vivo. As to conditions: 1 μmol/kg IV 30 min post-MCAO; infarct volume 24 h post-MCAO (FIGS. 5, 27). On the procedure:
Administration of peptide (DR9: rrrrrrrrr-NH2; R12, R15, R18, protamine sulphate; protamine) or vehicle (saline: 0.9% NaCl) treatment solution was performed at 30 min post-MCAO. The peptide treatment comprised DR9 in saline (600 μl) to provide an intravenous loading dose of 1 μmol/kg or 1000 nmol/kg given over 5-6 min via the right jugular vein.
This study was approved by the Animal Ethics Committee of the University of Western Australia. Male Sprague Dawley rats weighing 270 g to 350 g were kept under controlled housing conditions with 12 hour light-dark cycle with free access to food and water. Experimental animals were fasted overnight and subjected to permanent middle cerebral artery occlusion (MCAO) as follows.
Anaesthesia was induced with 4% isoflurane and a 2:1 mix of N2O and O2 via mask. Anaesthesia was maintained at 1.7-2% isoflurane. Cerebral blood flow (CBF) was monitored continuously using laser Doppler flowmetry (Blood FlowMeter, AD Instruments, Sydney, Australia). The probe was located 1 mm caudal and 4 mm lateral (right) to the bregma. A cannula was inserted in the right femoral artery to continuously monitor blood pressure and to provide samples for blood glucose and blood gas readings. Blood glucose was measured using a glucometer (MediSense Products, Abbott Laboratories, Bedford, Mass., USA) and blood gases were measured using a blood gas analyser (ABL5, Radiometer, Copenhagen, Denmark). Blood pressure was maintained at 80-100 mmHg. During surgery, rectal temperature was maintained at 37±0.5° C. and warming applied with a fan heater when necessary. For intravenous infusions, a length of PVC line primed with heparinised saline was tied in place in the right jugular vein, then externalised through a dorsal mid-scapular incision to a tether/swivel system (Instech Laboratories, Philadelphia, USA) designed to permit free movement.
The right common carotid artery (CCA) was exposed via a ventral neck incision. […] The isolated section of the ECA was ligated and cauterised to create a stump. The carotid body was removed and the pterygopalatine artery was ligated. A 4-0 nylon monofilament with a 0.39 mm diameter silicone tip (Doccol, Redlands, Calif., USA) was inserted through the ECA stump into the CCA and advanced rostrally into the internal carotid artery (ICA) until the laser Doppler flowmetry recorded a >30% decrease from baseline of cerebral blood flow. The monofilament was secured in two places (at the base of the ECA stump and on the ICA) for the remainder of the experiment. Animals were given post-operative analgesia consisting of pethidine (3 mg/kg intramuscular) and bupivacaine (1.5 mg/kg subcutaneously) at head and leg incision sites.
Post-surgery animals were allowed to recover in a climate-controlled chamber and their core body temperature monitored and maintained at 37±0.5° C. by a cooling/heating fan when required for 3-4 hours.
Animals were sacrificed 24 hours post-MCAO with intra-peritoneal injections of sodium pentobarbitone (900 mg/kg). […] Slices were scanned and images were analysed by an operator blind to treatment status using ImageJ 3rd edition (NIH, USA). The total infarct volume was determined by adding the areas of infarcted tissue on both sides of the 2 mm sections. These measured areas were multiplied by half slice thickness (1 mm), and corrected for cerebral oedema by multiplying the ratio of affected to normal hemisphere areas. […]

On to `N=C(N)NCCC[C@H](N)C(=O)O` [Peptide R1, H-R-OH], for which, in test [1], the “neuroprotection, milder insult” value is given as “ineffective” and the “neuroprotection (neuronal viability)” value is “no to little neuroprotection”. The concentration for half-maximal inhibition (IC50) in test [1] (read-out: IC50: Glutamic acid model, Table 4, polyarginine peptides, from dose response graph FIG. 1e) is more than 5 µM.
As to `N=C(N)NCCC[C@H](NC(=O)[C@H](CCCNC(=N)N)NC(=O)[C@@H](N)CCCNC(=N)N)C(=O)O` [Peptide R3, H-RRR-OH] (H-Arg-Arg-Arg-OH), in test [1], the concentration for half-maximal inhibition (IC50) was more than 5 µM; the “neuroprotection, milder insult” value is reported as “ineffective”; the “neuroprotection (neuronal viability)” value is listed as “no to little neuroprotection”.
Take `N=C(N)NCCC[C@H](NC(=O)[C@H](CCCNC(=N)N)NC(=O)[C@H](CCCNC(=N)N)NC(=O)[C@H](CCCNC(=N)N)NC(=O)[C@H](CCCNC(=N)N)NC(=O)[C@@H](N)CCCNC(=N)N)C(=O)O` [Peptide R6, H-RRRRRR-OH]: in test [1], the IC50 is more than 5 µM and the “neuroprotection, milder insult” value is given as “ineffective”.
For “Ac-PLFAE-RRRRRRRRR-NH2 (Ac-PLFAERRRRRRRRR-NH2) [Cal/R9]”, the “neuroprotection (neuronal viability)” value in test [1] was “moderate to high level neuroprotection”.
As to “GRKKRRQRRRG [TAT, the TAT peptide, reference compound]”, in test [1] (15 min incubation, wash-out before insult (FIG. 1c)), the “neuroprotection when peptide washed-out prior to glutamic acid exposure” value was “loss of efficacy”. In test [2], the “calcium influx after glutamic acid” value was “to varying degrees reduced calcium influx”.
Turning to “H-AAVALLPAVLLALLAP-OH [kFGF, reference compound]”, in test [1], the “neuroprotection (neuronal viability)” value is given as “ineffective”.
Take “H-AAVALLPAVLLALLAP-PPRPKRPTTLNLFPQVPRSQDT-OH (H-AAVALLPAVLLALLAPPPRPKRPTTLNLFPQVPRSQDT-OH) [kFGF-JNKI-1, reference compound]”: the “neuroprotection (neuronal viability)” value in test [1] is “not neuroprotective”.
As to “H-EEEEEEEEE-RRRRRRRRR-OH (H-EEEEEEEEERRRRRRRRR-OH) [E9/R9, reference compound]”, the “neuroprotection (neuronal viability)” value in test [1] (listed as E91R9) is “no protection”.
As for “H-GRKKRRQRRR-PPRPKRPTTLNLFPQVPRSQDT-OH (H-GRKKRRQRRRPPRPKRPTTLNLFPQVPRSQDT-OH) [TAT-JNKI-1, reference compound]”, the “neuroprotection (neuronal viability)” value in test [1] was “neuroprotective”. In test [2], the “calcium influx after glutamic acid” value is recorded as “to varying degrees reduced calcium influx”.
“H-KETWWETWWTEWSQPKKKRKV-NH2 [Pep-1, reference compound]” came in with a half-maximal inhibitory concentration (IC50) in test [3] (24 h) of more than 15 µM. Also, in test [3] (FIG. 3a), the “lower concentrations at which neuroprotective” value lay in the range of 1 to 5 µM. Moreover, the neuroprotection result in test [3] (peptide present during in vitro ischemia and at 50% dose after (FIG. 3a)) was “neuroprotective following in vitro ischemia at lower concentrations”.
For “H-RRERRRRSCAGCSRARGSCRSCRR-NH2 (cysteine pairing not given here) [NCXBP3]”, the “neuroprotection (neuronal viability)” value in test [1] is given as “high levels of protection”.
Turning to H-RRRRRRRR-OH [Peptide R8], the “concentration at which (significant) neuroprotection displayed” value in test [1] (dose response studies FIGS. 6, 7, 8) was 5 µM. Also, the “neuroprotection (neuronal viability)” value in test [1] is on record as “moderate to high level neuroprotection”.
Turning to “H-RRRRRRRRRPGRVVGGRRRRRRRRR-OH [R9/tPA/R9]”, in test [1], the midpoint of inhibition, the IC50, lay at 0.29 µM and the “neuroprotection (neuronal viability)” value is given as “highly effective”. Besides, in test [1] (dose response studies, glutamate model), the order of potency result is “potency between R12 and R18”.
On to “H-YARAAARQARA-OH [PTD-4, reference compound]”, for which the “neuroprotection (neuronal viability)” value in test [1] is listed as “little to no neuroprotective properties”; in test [1] (listed as PTA4) it was “largely ineffective”.
Turning to H-rrrrrrrrr-NH2 [D-R9], the “effect of heparin on neuroprotective action” value in test [1] (heparin 20 IU/ml with peptide or 40 IU/ml on cultures (FIGS. 39, 40)) is “blocks neuroprotective actions”. Further, in test [4], the “reduction of infarct volume (brain damage)” value was “approximately 20%”. In addition, the “calcium influx after glutamic acid” value in test [2] was “to varying degrees reduced calcium influx”.
PRRRRSSRRPVRRRRRPRVSRRRRRGGRRRR [Ptm2]: in test [1], the “neuroprotection (neuronal viability)” value was “neuroprotective”. The “neuroprotection when added for 15 minutes after OGD” value in test [3] (FIGS. 31, 20, 22, 1 μM and 5 μM in FIG. 31) was “neuroprotective”. The “neuroprotection in the OGD model (overall statement)” value in test [3] (discussion summary) is recorded as “neuroprotective”.
Turning to PRRRRSSSRPVRRRRRPRVSRRRRRGGRRRR [Ptm3], in test [1], the “neuroprotection (neuronal viability)” value is given as “neuroprotective”.
